The subject of this assay is h1_(TTAA)2 (DNA, hairpin) CGTTAATTAACGCCCCCGTTAATTAACG
The experiment in a line: SPR, steady state, two-site fit. The note with it: Na+ 100 mM (NaCl), 1 mM EDTA; 10 mM MES pH 6.25, 0.005% P20, 25 °C; site 1 of 2; error about ±10%. On the technique in general: In SPR one partner is held on a chip, and binding of the other changes the refractive index at the surface.

This is an account of results in PMC11526092 (2024).

Compound `N=C(N)c1ccc(OCCCCCOc2ccc(C(=N)N)cc2)cc1` showed a K1 of 680 nM.
